Reference: US20150329501A1, “SUBSTITUTED [1,2,4]TRIAZOLE COMPOUNDS AND THEIR USE AS FUNGICIDES” (BASF SE, priority 2012, published 2015)

Assays:
[1] = system: Phytophthora infestans; type: cell-based; details: relative growth vs active compound-free control (100%), microtiter plate, 405 nm, 7 days after inoculation
[2] = system: Botrytis cinerea; test: Microtest: activity against the grey mold Botrytis cinerea in the microtiterplate test (Botrci) (M2, M4, M2-1, CM3); type: cell-based; details: relative growth vs active compound-free control (100%), microtiter plate, 405 nm, 7 days after inoculation
[3] = system: Septoria tritici; test: Microtest: activity against leaf blotch on wheat caused by Septoria tritici (Septtr) (M1, M6, M2-3, CM4); type: cell-based; details: 405 nm, 7 days after inoculation; for Growth (%) at 0.5 ppm Septtr: relative growth vs active compound-free control (100%), microtiter plate; for relative growth in % of the pathogen: 31 ppm, compound-free control = 100%
[4] = system: Pyricularia oryzae; type: cell-based; details: relative growth vs active compound-free control (100%), microtiter plate, 405 nm, 7 days after inoculation
[5] = system: Phakopsora pachyrhizi; test: Green house: curative control of soy bean rust on soy beans caused by Phakopsora pachyrhizi (Phakpa K2) (G2-3); type: in vivo; details: 125 ppm, sprayed after inoculation (curative), untreated plants 90% infected
[6] = system: Botrytis cinerea; test: Green house: preventative fungicidal control of Botrytis cinerea on leaves of green pepper (Botrci P1) (G2-1); type: in vivo; details: 125 ppm, sprayed the day before inoculation, untreated plants 90% infected
Description: Young seedlings of green pepper were grown in pots to the 4 to 5 leaf stage. […] The next day the plants were inoculated with an aqueous biomalt solution containing the spore suspension of Botrytis cinerea.

[7] = system: Alternaria solani; test: Green house: preventative fungicidal control of early blight on tomatoes (Alternaria solani) (Alteso P1) (G2, G2-2); details: 125 ppm, sprayed the day before inoculation; tomato; untreated plants 70% infected
Description: Water was then added to total volume of 100 ml. This stock solution was diluted with the described solvent-emulsifier-water mixture to the given concentration.
Young seedlings of tomato plants were grown in pots. These plants were sprayed to run-off with an aqueous suspension, containing the concentration of active ingredient or mixture mentioned in the table below. The next day, the treated plants were inoculated with an aqueous suspension of Alternaria solani. Then the trial plants were immediately transferred to a humid chamber. After 5 days at 18 to 20° C. and a relative humidity close to 100%, the extent of fungal attack on the leaves was visually assessed as % diseased leaf area.

Structure (SMILES): CC(C)(C)C(O)(Cn1cncn1)c1cccc(Oc2ccccc2)c1 (stereo not shown)
- Growth (%) at 31 ppm Phytin [1]: 80%
- Growth (%) at 31 ppm Botrci [2]: 76%
- Growth (%) at 0.5 ppm Septtr [3]: 83%
- Growth (%) at 8 ppm Pyrior [4]: 89%

Structure (SMILES): CC(C)(C)C(O)(Cn1cncn1)c1cc(Cl)cc(Oc2ccccc2)c1 (stereo not shown)
- Growth (%) at 8 ppm Pyrior [4]: 69%

Structure (SMILES): CC(C)(C)C(O)(Cn1cncn1)c1cccc(Oc2ccc(Cl)cc2)c1 (stereo not shown) [Compound I-24]
- Growth (%) at 31 ppm Phytin [1]: 42%
- Growth (%) at 31 ppm Botrci [2]: 9%
- Growth (%) at 0.5 ppm Septtr [3]: 13%
- Growth (%) at 8 ppm Pyrior [4]: 0%

Structure (SMILES): CC(C)(C)C(O)(Cn1cncn1)c1cc(Cl)cc(-c2ccc(Cl)cc2)c1 (stereo not shown) [Compound I-27]
- infection (% diseased leaf area) [5]: 7%

Structure (SMILES): OC(Cn1cncn1)(c1cccc(-c2ccc(Cl)cc2)c1)C(F)(F)F (stereo not shown) [Compound I-29]
- infection (% diseased leaf area) [6]: 1%
- relative growth in % of the pathogen [3]: 0%
- infection (% diseased leaf area) [7]: 10%
- infection (% diseased leaf area) [5]: 0%

Structure (SMILES): C#CCC(O)(Cn1cncn1)c1cccc(-c2ccc(Cl)cc2)c1 (stereo not shown) [Compound I-30]
- infection (% diseased leaf area) [6]: 1%
- relative growth in % of the pathogen [3]: 0%
- infection (% diseased leaf area) [7]: 1%
- infection (% diseased leaf area) [5]: 1%

Structure (SMILES): CC(C)(C)C(O)(Cn1cncn1)c1cc(Cl)cc(Oc2ccc(Cl)cc2)c1 (stereo not shown) [Compound I-31]
- Growth (%) at 8 ppm Pyrior [4]: 0%
